Patent publication US10442778B2, “N1-phenylpropane-1,2-diamine compounds with selective activity in voltage-gated sodium channels” (Merck Sharp & Dohme Corp., priority 2016, dated 2019)

Experiments:
[1] = biological target: T1, human Nav1.7 channels stably expressed in HEK 293 cells (Homo sapiens, UniProt Q15858); assay: IonWorks Quattro automated patch-clamp, inactivated state block of Nav1.7; format: cell-based; details: double-pulse protocol, read-out: potency for the Nav 1.7 sodium ion channel (as measured by IonWorks)
T1 construct: expressed in transfected cells; host or cells: HEK 293
Method: (§1) Compounds were tested on human Nav1.7 and Nav1.5 channels stably expressed in HEK 293 cells. […] Cells were sealed on a planar substrate using the Population Patch Plate (PPC) technology. Electrical access was obtained using both nystatin and amphotericin. A double-pulse protocol was used for the determination of IC50 values for inactivated state block. Nav1.7 and Nav1.5 expressing cells were voltage clamped at −100 mV and −110 mV, respectively. A depolarizing prepulse to −10 mV (Nav1.7) or −30 mV (Nav1.5) for 1000 ms followed by a 10 ms repolarization to −100 mV (Nav1.7) or −110 mV (Nav1.5) was given to generate fractional channel inactivation of ˜50%, followed by a 10 ms test pulse to −10 mV (Nav1.7) or −30 mV (Nav1.5) to measure peak current in control conditions and after compound addition. The following recording solutions were used (mM). External: 150 NaCl, 2 CaCl2, 5 KCl, 1 Mg Cl2, 10 HEPES, 12 Dextrose; internal: 120 CsF, 30 CsCl, 10 EGTA, 5 HEPES, 5 NaF, 2 MgCl2.
(§2) For all electrophysiology experiments, offline analysis was used to determine percent inhibition as a function of drug concentration. IC50 values were determined by fitting to the Hill equation.

[2] = biological target: T2, human Nav1.5 channels stably expressed in HEK 293 cells (Homo sapiens, UniProt Q14524); assay: IonWorks Quattro automated patch-clamp, inactivated state block of Nav1.5 (selectivity); format: cell-based; details: IonWorks measurement, both channels in HEK 293 cells
T2 construct: expressed in transfected cells; host or cells: HEK 293
Method: as §1, §2

T2 sequence (Q14524 whole entry): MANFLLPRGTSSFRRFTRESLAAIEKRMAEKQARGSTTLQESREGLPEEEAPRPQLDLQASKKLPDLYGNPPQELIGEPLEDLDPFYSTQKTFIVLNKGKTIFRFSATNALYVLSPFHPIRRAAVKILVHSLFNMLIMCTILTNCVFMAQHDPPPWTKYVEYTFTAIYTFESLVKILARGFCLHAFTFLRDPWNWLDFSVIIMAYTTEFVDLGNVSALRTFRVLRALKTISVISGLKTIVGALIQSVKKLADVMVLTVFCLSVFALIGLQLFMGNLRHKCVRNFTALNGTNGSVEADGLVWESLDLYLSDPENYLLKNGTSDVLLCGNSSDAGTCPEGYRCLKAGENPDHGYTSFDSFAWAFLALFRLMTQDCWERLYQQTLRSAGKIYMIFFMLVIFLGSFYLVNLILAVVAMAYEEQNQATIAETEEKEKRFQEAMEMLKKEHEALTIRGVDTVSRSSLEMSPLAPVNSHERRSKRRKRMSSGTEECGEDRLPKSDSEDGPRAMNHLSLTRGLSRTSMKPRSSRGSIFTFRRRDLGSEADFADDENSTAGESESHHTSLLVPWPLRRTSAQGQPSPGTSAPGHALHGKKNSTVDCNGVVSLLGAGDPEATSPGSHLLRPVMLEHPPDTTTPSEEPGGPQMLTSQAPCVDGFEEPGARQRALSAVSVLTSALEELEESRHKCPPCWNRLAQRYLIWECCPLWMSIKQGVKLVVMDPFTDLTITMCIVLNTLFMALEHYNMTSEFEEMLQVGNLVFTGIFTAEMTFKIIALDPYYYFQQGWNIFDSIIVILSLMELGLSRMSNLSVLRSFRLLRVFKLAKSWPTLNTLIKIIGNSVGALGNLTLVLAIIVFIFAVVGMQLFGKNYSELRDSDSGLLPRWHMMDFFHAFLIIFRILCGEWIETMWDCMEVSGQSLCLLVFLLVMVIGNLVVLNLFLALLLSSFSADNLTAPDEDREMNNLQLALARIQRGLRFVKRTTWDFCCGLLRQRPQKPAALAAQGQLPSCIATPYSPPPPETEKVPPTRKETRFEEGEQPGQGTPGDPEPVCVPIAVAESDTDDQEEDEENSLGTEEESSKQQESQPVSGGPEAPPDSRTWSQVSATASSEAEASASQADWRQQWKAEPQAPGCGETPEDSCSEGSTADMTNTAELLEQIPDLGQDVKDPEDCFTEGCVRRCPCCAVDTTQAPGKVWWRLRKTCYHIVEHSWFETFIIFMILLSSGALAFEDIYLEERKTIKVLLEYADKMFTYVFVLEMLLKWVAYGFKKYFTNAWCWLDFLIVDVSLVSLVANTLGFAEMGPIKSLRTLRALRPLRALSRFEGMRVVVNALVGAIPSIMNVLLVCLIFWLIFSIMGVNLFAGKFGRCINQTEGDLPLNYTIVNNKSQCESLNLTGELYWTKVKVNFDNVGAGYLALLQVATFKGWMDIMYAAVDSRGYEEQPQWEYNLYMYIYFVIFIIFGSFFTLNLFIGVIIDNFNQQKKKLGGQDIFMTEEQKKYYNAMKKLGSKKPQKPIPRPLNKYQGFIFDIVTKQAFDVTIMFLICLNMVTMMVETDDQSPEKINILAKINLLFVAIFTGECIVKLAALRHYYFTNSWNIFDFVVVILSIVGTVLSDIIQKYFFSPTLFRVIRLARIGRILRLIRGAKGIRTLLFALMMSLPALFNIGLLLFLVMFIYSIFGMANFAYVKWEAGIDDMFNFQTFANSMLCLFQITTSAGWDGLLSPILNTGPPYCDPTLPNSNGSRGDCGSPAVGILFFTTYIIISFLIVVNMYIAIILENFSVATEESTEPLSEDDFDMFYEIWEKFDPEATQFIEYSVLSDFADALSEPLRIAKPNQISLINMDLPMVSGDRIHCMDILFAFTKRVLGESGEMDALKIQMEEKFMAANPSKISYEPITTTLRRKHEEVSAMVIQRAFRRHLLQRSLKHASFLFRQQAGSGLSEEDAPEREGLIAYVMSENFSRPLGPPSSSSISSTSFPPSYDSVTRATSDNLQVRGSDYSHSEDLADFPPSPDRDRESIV
T1 sequence (Q15858 whole entry): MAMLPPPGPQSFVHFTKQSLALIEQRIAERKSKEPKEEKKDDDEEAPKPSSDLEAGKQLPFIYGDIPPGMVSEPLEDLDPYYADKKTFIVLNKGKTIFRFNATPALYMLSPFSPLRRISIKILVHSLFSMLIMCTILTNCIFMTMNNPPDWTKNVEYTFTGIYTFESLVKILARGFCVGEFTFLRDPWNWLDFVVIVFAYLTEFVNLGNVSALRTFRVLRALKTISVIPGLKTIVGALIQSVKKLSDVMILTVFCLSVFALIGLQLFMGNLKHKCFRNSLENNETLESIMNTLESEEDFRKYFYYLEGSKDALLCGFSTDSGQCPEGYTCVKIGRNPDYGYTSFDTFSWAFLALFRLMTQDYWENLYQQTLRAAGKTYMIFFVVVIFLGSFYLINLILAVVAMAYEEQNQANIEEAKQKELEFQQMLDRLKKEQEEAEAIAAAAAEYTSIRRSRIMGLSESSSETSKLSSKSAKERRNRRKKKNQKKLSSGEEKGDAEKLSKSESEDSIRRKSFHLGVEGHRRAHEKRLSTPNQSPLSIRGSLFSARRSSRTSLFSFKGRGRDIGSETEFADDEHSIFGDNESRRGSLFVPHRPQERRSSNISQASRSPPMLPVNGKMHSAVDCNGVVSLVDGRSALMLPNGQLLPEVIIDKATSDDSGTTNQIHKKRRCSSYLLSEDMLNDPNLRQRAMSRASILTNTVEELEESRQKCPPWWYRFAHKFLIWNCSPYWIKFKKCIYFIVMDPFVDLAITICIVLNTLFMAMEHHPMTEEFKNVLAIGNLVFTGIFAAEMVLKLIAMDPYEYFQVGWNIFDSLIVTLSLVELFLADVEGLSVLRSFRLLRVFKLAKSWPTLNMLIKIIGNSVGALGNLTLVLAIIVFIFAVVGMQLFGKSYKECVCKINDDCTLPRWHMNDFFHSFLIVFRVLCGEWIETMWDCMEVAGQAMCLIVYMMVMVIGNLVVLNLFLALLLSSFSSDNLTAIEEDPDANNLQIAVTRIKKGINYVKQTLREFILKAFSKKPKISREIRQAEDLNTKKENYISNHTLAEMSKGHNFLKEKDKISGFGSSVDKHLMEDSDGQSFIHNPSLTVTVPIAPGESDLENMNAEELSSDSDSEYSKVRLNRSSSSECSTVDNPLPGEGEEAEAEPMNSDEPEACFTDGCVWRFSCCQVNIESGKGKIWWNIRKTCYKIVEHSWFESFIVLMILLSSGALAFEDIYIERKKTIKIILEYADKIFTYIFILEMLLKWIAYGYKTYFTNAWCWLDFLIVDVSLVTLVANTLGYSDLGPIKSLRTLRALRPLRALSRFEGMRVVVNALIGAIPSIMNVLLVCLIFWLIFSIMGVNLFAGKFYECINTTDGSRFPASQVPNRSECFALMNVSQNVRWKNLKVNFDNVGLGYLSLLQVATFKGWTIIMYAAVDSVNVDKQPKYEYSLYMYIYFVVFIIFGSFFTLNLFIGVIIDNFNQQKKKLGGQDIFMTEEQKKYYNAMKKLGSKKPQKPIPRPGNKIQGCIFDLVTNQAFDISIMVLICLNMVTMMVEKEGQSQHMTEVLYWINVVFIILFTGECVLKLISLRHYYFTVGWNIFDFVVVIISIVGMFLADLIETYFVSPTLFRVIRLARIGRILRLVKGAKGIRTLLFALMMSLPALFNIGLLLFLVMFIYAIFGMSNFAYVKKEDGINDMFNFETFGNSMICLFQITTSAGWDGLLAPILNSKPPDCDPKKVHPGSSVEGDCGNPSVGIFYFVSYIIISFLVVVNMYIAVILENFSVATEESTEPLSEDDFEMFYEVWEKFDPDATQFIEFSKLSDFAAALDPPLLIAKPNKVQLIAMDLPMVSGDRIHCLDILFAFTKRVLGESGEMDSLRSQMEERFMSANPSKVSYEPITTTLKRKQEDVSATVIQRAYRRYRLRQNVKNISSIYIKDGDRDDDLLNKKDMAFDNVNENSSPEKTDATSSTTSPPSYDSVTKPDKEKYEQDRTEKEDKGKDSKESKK

CN[C@H](CNc1cc(F)c(S(=O)(=O)Nc2nccs2)cc1Cl)Cc1cccc(F)c1Br [Ex1-33, (S)-4-((3-(2-bromo-3-fluorophenyl)-2-(methyl-amino)propyl)-amino)-5-chloro-2-fluoro-N-(thiazol-2-yl)-benzenesulfonamide]
IC50 [1]: 0.13 µM | ratio of Nav1.7 potency:Nav 1.5 potency [2]: > 254

CN[C@@H](CCC(C)(C)C)CNc1cc(F)c(S(=O)(=O)Nc2ncc(F)s2)cc1Cl [Ex2-15, (S)-5-chloro-4-((5,5-dimethyl-2-(methylamino)hexyl)amino)-2-fluoro-N-(5-fluorothiazol-2-yl)-benzenesulfonamide]
IC50 [1]: 0.67 µM | ratio of Nav1.7 potency:Nav 1.5 potency [2]: > 49

CN[C@H](CNc1cc(F)c(S(=O)(=O)Nc2nccs2)cc1Cl)Cc1ccccc1F [Ex1-29, (S)-5-chloro-2-fluoro-4-((3-(2-fluorophenyl)-2-(methylamino)-propyl)-amino)-N-(thiazol-2-yl)-benzenesulfonamide]
IC50 [1]: 0.31 µM | ratio of Nav1.7 potency:Nav 1.5 potency [2]: > 106

CN[C@H](CNc1cc(F)c(S(=O)(=O)Nc2ncc(F)s2)cc1C#N)CC(C)(C)C [Ex4-3, (S)-5-cyano-4-((4,4-dimethyl-2-(methylamino)pentyl)amino)-2-fluoro-N-(5-fluorothiazol-2-yl)benzenesulfonamide]
IC50 [1]: 0.64 µM | ratio of Nav1.7 potency:Nav 1.5 potency [2]: > 52

CCCC[C@@H](CNc1cc(F)c(S(=O)(=O)Nc2ncc(F)s2)cc1Cl)NCCC [Ex7-5, (S)-5-chloro-2-fluoro-N-(5-fluorothiazol-2-yl)-4-((2-(propylainino)hexyl)amino) benzenesulfonamide]
IC50 [1]: 0.041 µM | ratio of Nav1.7 potency:Nav 1.5 potency [2]: > 805

CN[C@H](CNc1cc(F)c(S(=O)(=O)Nc2ncc(F)s2)cc1Cl)CC12CC(C1)C2 [Ex2-13, (S)-4-((3-(bicyclo[1.1.1]pentan-1-yl)-2-(methylamino)propyl)-amino)-5-chloro-2-fluoro-N-(5-fluorothiazol-2-yl)-benzenesulfonamide]
IC50 [1]: 0.054 µM | ratio of Nav1.7 potency:Nav 1.5 potency [2]: > 611

CN[C@H](CNc1cc(F)c(S(=O)(=O)Nc2nccs2)cc1Cl)Cc1ccc(Cl)cc1 [Ex1-34, (S)-5-chloro-4-((3-(4-chlorophenyl)-2-(methyl-amino)propyl)amino)-2-fluoro-N-(thiazol-2-yl)-benzenesulfonamide]
IC50 [1]: 0.033 µM | ratio of Nav1.7 potency:Nav 1.5 potency [2]: > 1000

CN[C@H](CNc1cc(F)c(S(=O)(=O)Nc2nccs2)cc1Cl)Cc1cccc(F)c1 [Ex1-28, (S)-5-chloro-2-fluoro-4-((3-(3-fluorophenyl)-2-(methylamino)-propyl)-amino)-N-(thiazol-2-yl)-benzenesulfonamide]
IC50 [1]: 0.032 µM | ratio of Nav1.7 potency:Nav 1.5 potency [2]: > 1031

CN[C@H](CNc1cc(F)c(S(=O)(=O)Nc2ncc(F)s2)cc1Cl)CC1CC1(F)F (stereo partly drawn) [Ex2-22, 5-chloro-4-(((2S)-3-(2,2-difluorocyclopropyl)-2-(methylamino)propyl)amino)-2-fluoro-N-(5-fluorothiazol-2-yl)-benzenesulfonamide]
IC50 [1]: 1 µM | ratio of Nav1.7 potency:Nav 1.5 potency [2]: > 23

CN[C@H](CNc1cc(F)c(S(=O)(=O)Nc2nccs2)cc1Cl)Cc1cccc(Cl)c1 [Ex1-19, (S)-5-chloro-4-((3-(3-chlorophenyl)-2-(methyl-amino)propyl)-amino)-2-fluoro-N-(thiazol-2-yl)-benzenesulfonamide]
IC50 [1]: 0.024 µM | ratio of Nav1.7 potency:Nav 1.5 potency [2]: > 1375

CN[C@H](CNc1cc(F)c(S(=O)(=O)Nc2nccs2)cc1Cl)Cc1ccccc1Br [Ex1-24, (S)-4-((3-(2-bromo-phenyl)-2-(methylamino)-propyl)amino)-5-chloro-2-fluoro-N-(thiazol-2-yl)-benzenesulfonamide]
IC50 [1]: 0.44 µM | ratio of Nav1.7 potency:Nav 1.5 potency [2]: > 75

CN[C@@H](CCC1CCC1)CNc1cc(F)c(S(=O)(=O)Nc2ncc(F)s2)cc1Cl [Ex3-13, (S)-5-chloro-4-((4-cyclobutyl-2-(methylamino)butyl)amino)-2-fluoro-N-(5-fluorothiazol-2-yl)-benzenesulfonamide]
IC50 [1]: 0.3 µM | ratio of Nav1.7 potency:Nav 1.5 potency [2]: > 110

CN[C@H](CNc1cc(F)c(S(=O)(=O)Nc2nccs2)cc1Cl)Cc1ccc(C)cc1 [Ex1-20, (S)-5-chloro-2-fluoro-4-((2-(methylamino)-3-(p-tolyl)propyl)amino)-N-(thiazol-2-yl)-benzenesulfonamide]
IC50 [1]: 0.28 µM | ratio of Nav1.7 potency:Nav 1.5 potency [2]: > 118
